Laboratory results published in patent US20240110200A1, “Recombinant AAV Vectors and Gene Therapies for Treating Brain Diseases” (City University of Hong Kong, priority 2022, published 2024).

How the values were obtained:
[1] = tested on: KA-induced chronic epileptic mice; assay: Intrahippocampal kainic acid injection-induced chronic epilepsy (TLE) model, seizure monitoring by MMRS; type: in vivo, C57BL/6J male mice; conditions: 650 nL KA (0.3 mg/mL) intrahippocampal, no intervention
Description: C57BL/6J male mice (6˜7 weeks old) are anaesthetized with pentobarbital (100 mg/kg), a craniotomy is performed perpendicularly to the […] of the hippocampus (−2.06 mm posterior to the bregma, −1.80 mm to the midline, and −1.60 mm to the dura), and 650 nL KA (0.3 mg/mL) is injected at a speed of 30 nL/min.
Upon recovering from the anesthesia, the mice are monitored for at least an hour for any signs of acute epileptic seizures before being placed back into their cages for routine monitoring. For the mice only injected with KA (FIG. S16), they are monitored for 16 weeks after the KA injection.
The mice are housed separately under a standard 12-h light/dark cycle and stable temperature (23-25° C.) with free access to food and water. Each KA-injected mouse is monitored and recorded 24 h per day using a 360-smart camera for a minimum of three weeks after surgery. […]
The seizures of the mice are evaluated in a blinded manner; the examiners of the video are blind to the history of the mice. […]
After the C57bL/6J male mice (9-10 weeks old) show a stable occurrence of spontaneous recurrent seizures, epileptic mice are randomly divided into two groups (experimental and control). The daily seizure occurrence is recorded for 2 weeks as the pre-treatment baseline for each mouse (FIG. 6). […]

[2] = tested on: GFAP+ cells / Camkll+ cells in cortex and hippocampus; assay: GFAP and Camkll immunostaining of TLE mouse brain; type: in vivo, C57BL/6J male mice; conditions: right intrahippocampal KA-injection; n=10 sections from N=4 mice
Description: For immunohistochemistry, mice are deeply anaesthetized by an overdose of pentobarbital sodium. Mice are transcardially perfused with 30 mL cold phosphate-buffered saline (PBS) and 30 mL 4% (w/v) paraformaldehyde (4% PFA). Brain tissue is removed, post-fixed with 4% PFA, and treated with 30% (w/v) sucrose in 4% PFA at 4° C. for 2˜3 days. Brain tissue is sectioned on a cryostat (30 μm for standard staining and 10 μm for Super-Resolution imaging) (Leica CM3500, Germany) and preserved with antifreeze buffer (20% (v/v) glycerine and 30% (v/v) ethylene glycol diluted in PBS) at −20° C. For immunostaining and statistics of co-labelled neurons and axonal synapses in the AC, serial sections containing the AC are selected for analysis. […]
Images are took at 20× magnification and montaged together with the same laser settings between the parallel studies. […] For quantification of co-localization, neurons expressing the indicated reporter are counted using only the corresponding color channel. Then, among these cells, the number of neurons co-expressing the marker of interest is counted by the Nikon imaging analysis software (NIS-Elements Viewer 5.21). […] A neuron is positive for a given marker if the corresponding signal is above background fluorescence. The ratio of neurons co-expressing both markers over the total number of cells expressing only the reporter is then calculated. […]

SMILES: C=C(C)[C@H]1CN[C@H](C(=O)O)[C@H]1CC(=O)O [KA, Kainic Acid]
- recurrent convulsive seizures of stages 3 to 5 at week 4 [1]: 5.2±1.52 seizures per day
- GFAP+ cells in the right hippocampus after 16 weeks [2]: 748.56±74.88 per mm^2
